Results reported in patent US11353448B2, “Methods and compositions for quantifying metabolites and proteins from single cells” (CALIFORNIA INSTITUTE OF TECHNOLOGY, priority 2015, dated 2022).
Entries after “also recorded” stand apart in the source; their conditions may differ. Where two headings read alike, the source gives them in different places.

What was measured:
U87/EGFRV3 cells = assay: Glutamine analog uptake (Cyclodextrin-Cy3 / Adamantane-BHQ2 FRET readout); type: cell-based, human; conditions: 1 mM analog, 20 min; with glutamine at 4° C. and 37° C., without glutamine at 37° C.
Experimental: FIG. 5B is a graph of cell uptake experiments using the immunofluorescence assay depicted in FIG. 2C to assay Compounds 1-8 as shown in FIG. 5A in the presence of glutamine at 4° C. (left bars) and 37° C. (middle bars), and in the absence of glutamine at 37° C. (right bars), according to embodiments of the present invention.
U87/EGFRV3 single cells were resuspended in DMEM media or glutamine-free DMEM media (Thermo Fisher Scientific) with 1 mM of glutamine analog and incubated at 37° C. or 4° C. for 20 min. Subsequently, the cells were collected via centrifugation (500 g, 5 min) and washed with cold PBS for three times. Then, the cells were lysed using cell lysis buffer (Cell Signaling, Boston, Mass., U.S.A.). To quantify the analog uptake, the lysate was mixed with an Adamantane-BHQ2 solution (100 nM in water) incubated on the glass slide with surface hybridized Cyclodextrin-Cy3-DNA at room temperature for 1 hr. the glass slide was then washed and spin dried. The fluorescence signal on the glass slide was read out using an Axon GenePix 4400A scanner.

[1] = molecular target: T1, SLC1A5 neutral amino acid transporter (Homo sapiens, UniProt Q15758); assay: Uptake of Compound 3 with the SLC1A5 transporter inhibited (sodium free, siRNA); type: cell-based; conditions: U87 cells
T1 construct: Compound 3 was further analyzed for uptake in U87 cells; endogenous in cells; host or cells: U87 (U87/EGFRV3) glioblastoma cells
T1 sequence (Q15758 1-541): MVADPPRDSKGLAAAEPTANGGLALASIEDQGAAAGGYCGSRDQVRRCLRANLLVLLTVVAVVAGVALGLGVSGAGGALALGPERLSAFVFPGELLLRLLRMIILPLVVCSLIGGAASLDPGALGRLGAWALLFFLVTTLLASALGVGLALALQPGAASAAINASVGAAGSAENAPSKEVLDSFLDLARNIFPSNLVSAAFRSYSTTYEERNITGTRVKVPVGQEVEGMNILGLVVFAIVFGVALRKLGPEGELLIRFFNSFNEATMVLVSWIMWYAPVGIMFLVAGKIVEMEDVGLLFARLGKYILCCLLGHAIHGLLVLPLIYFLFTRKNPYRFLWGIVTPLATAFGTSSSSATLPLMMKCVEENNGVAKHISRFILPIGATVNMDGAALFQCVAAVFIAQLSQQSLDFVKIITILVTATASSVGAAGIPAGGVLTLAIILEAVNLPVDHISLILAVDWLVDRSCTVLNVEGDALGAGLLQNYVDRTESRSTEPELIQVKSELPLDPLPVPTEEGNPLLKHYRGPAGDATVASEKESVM
Experimental: In some embodiments of the present invention, a method for measuring glutamine uptake in a cell includes incubating the cell with a glutamine analog, followed by lysis of the cell, and quantification of the amount of the glutamine analog in the cell. […] These 8 glutamine analogs (adamantane conjugates) were assayed for their ability to substitute for glutamine. […] As such, the Compound 3 Ad-Glutamine analog is a validated substitute for glutamine.

U87 cells = assay: Glutamine kit assay (Abcam, ab83389), cells incubated with Compound 3; type: cell-based, human; conditions: U87 cells alone vs incubated with Compound 3
cell growth = assay: Cell toxicity of Compound 3 Ad-Glutamine analog (cell numbers normalized to control); type: cell-based; conditions: indicated concentrations, FIG. 5F
Excerpt: FIG. 5F is a graph showing cell toxicity of the Compound 3-Ad-Glutamine analog at the indicated concentrations with cell numbers normalized to the control sample, according to embodiments of the present invention.

GBM39 single cells = assay: Validation of the Gluc-Bio uptake; type: cell-based, human; conditions: 20 ug/mL Gluc-Bio, 20 min; 17.5 mM vs 25 mM glucose; 37° C. vs 4° C.
Experimental: FIG. 4C is a graph of cell uptake experiments using the immunofluorescence assay depicted in FIG. 2B to assay Gluc-Bio uptake in GBM39 primary neurosphere cells at 37° C. in the presence of […] glucose and 25 mM glucose, and at 4° C. at 17.5 mM glucose as indicated, showing that Gluc-Bio competes with glucose, according to embodiments of the present invention.
GBM39 single cells were suspended in normal media (17.5 mM glucose) or high glucose media (25 mM glucose) at a concentration of 0.5 M cells/mL. These cells were incubated with 20 ug/mL of Gluc-Bio at 37° C. or 4° C. for 20 min. After incubation, cells were washed with cold PBS for three times and then lysed for quantifying the Gluc-Bio.

hexokinase = assay: Coupled enzyme kinetics measurement (hexokinase/G6PDH, NADH absorption at 340 nm); type: biochemical
Excerpt: Enzymes and substrate solutions from a glucose assay kit (Sigma-Aldrich) were used without purification. […] First, hexokinase converts glucose into glucose-6-phosphate, which consumes one equivalent of ATP. Then, the glucose-6-phosphate is converted to gluconate-6-phosphate by glucose-6-phosphate dehydrogenase (G6PDH). At the same time, this process converts NAD to NADH, which has a distinct absorption band at 340 nm. By continuously measuring the solution absorption, the kinetics of the first reaction can be indirectly monitored. […] This will result in a much slower generation of NADH. […] This proves that Gluc-Bio can bind to hexokinase and could be a substrate. […] In this experiment, the amount of ATP was controlled to be much less than that of glucose. If Gluc-Bio is simply an inhibitor and cannot be converted by hexokinase, it will not consume the ATP pool in the solution, and the final amount of NADH will be the same as that of glucose alone.

U87EGFRvIII cells [2] = assay: Growth curves under erlotinib; type: cell-based, human; conditions: 1 uM erlotinib
Excerpt: U87/EGFRV3 cells were provided by Prof.

GBM39 cells = assay: SCBC multiplex metabolite/protein assay before and after erlotinib; type: cell-based, human; conditions: 24 h erlotinib treatment (1 μM)
Experimental: Using a SCBC as shown in FIGS. 1A and 1B and further disclosed herein, simultaneous quantification of a panel of metabolites and proteins, including cAMP, cGMP, glucose uptake, glutathione along with phosphofructokinase (PFK), phospho-acetyl-CoA Caraboxylase (pACAC), phospho-liver kinase B1 (pLKB1), phosphoinositide-dependent kinase 1 (PDK), hexokinase 2 (HK2), pyruvate kinase M2 (PKM2), and phospho-carbohydrate kinase family protein (pPFKB2) was performed in single cells separated from the GBM39 neurosphere tumor model. […] For the drug treatment, 1 million cells were suspended in 10 mL of media and were cultured for several days to form neurospheres. […] The cells were then treated for designated periods of time and processed for tests. Cell loading. The upper channels were briefly rinsed with cell culture medium to minimize perturbation to the cells. […] The suspension was loaded into the SCBC device and compartmentalized into 310 isolated microchambers with single cell or defined number of cells in each chamber. The cell loading step results in a random distribution of different numbers of cells in different chambers, the statistical distribution can be adjusted by varying the loading concentration and the flow speed. […] The extra cells were washed away by 1×PBST. The images of each chamber were recorded using a microscope-CCD camera and used for subsequent cell counting.

U87EGFRvIII cells [3] = test system: U87EGFRvIII cells
Experimental: A multiplex assay incorporating the glutamine uptake assay according to embodiments of the present invention was performed using a SCBC platform in U87 human glioblastoma cells having amplified epidermal growth factor receptor (EGFR) expression.
U87/EGFRV3 cells were provided by Prof. Paul S. Mischel (UCSD, San Diego, U.S.A.) and cultured in Dulbecco's modified eagle media (DMEM, Gibco, ThermoFisher Scientific, Grand Island, N.Y., U.S.A.) supplemented with 10% of fetal bovine serum (Thermo Fisher Scientific) and 100 U/mL of penicillin and streptomycin in a humidified 5% CO2 (v/v) incubator, at 37° C.
In order to better understand the integrated single cell metabolic/proteomic data, a simplified semi-quantitative metabolic model (FIG. 16A) was developed. The focus of this model includes the glycolysis pathway and the TCA cycle, which cover the major contributors of cellular energy generation. Glucose is used by cells for many tasks, but by combining the measurement of glucose uptake with measurements of those enzymes that process glucose for energy production and lactate production, an estimation may be made of the contributions of glucose to glycolysis and to the TCA cycle (FIGS. 16A-16B). It assumed that each glucose molecule consumed yields 8 ATP equivalents through glycolysis, and an additional 22 ATP equivalents through the TCA cycle. The numbers here are not the actual ATP production number, but an energy-currency conversion. The glycolysis part generates 2 ATP and 2 NADH molecules per glucose, and each NADH is ultimately worth 3 ATP, thus making 8 ATP total. […] For glutamine that is taken up by the cell, there are multiple possible outcomes. It can enter the TCA cycle to generate energy, or it can be exported in exchange for other amino acids, or participate in biosynthesis of glutathione and proteins, as examples. On this basis, glutamine may be considered as a special currency, which can either be used directly by the cell to produce energy, or in exchange of other necessary nutrients or to perform some crucial metabolic function. From a global point of view, the active uptake of glutamine reflects a metabolic demand from the cell, regardless how it is used. In order to have an integrated picture of the potential energy production from glutamine and glucose, we simply assume that all glutamine participates in the TCA cycle, so that each glutamine molecule affords 8.5 ATP equivalents. To calculate the energy production for each pathway, glucose and glutamine uptake levels as well as related metabolic enzyme levels are normalized into the range between 0 and 1 across all samples. Subsequently, the normalized analyte levels (a) were used and a steady-state approximation (FIG. 16E) to calculate the energy production rate for each step (FIG. 16B). Several energy indices were defined based on the model. The energy production index (EPI) assesses the total energy production rate through glucose and glutamine metabolism, while the energy source index (ESI) measures the energy contribution ratio between glucose and glutamine. The glycolysis index (GI) weighs the contribution of glycolysis in total glucose-based energy production, and depends upon glucose uptake, as well as the levels of phosphofructokinase (PFK) and pyruvate kinase isozyme M2 (PKM2). In addition to the energy indices, we use the cAMP and cGMP levels to define an energy frustration index (EFI), and use the GSH level to define a redox frustration index (RFI).

For `NC(CCCNC(=O)C12CC3CC(CC(C3)C1)C2)C(=O)O` (stereo not drawn) [Compound 3, 5-(adamantane-1-carboxamido)-2-aminopentanoic acid], the “cell uptake of glutamine analog: dependence on temperature and on glutamine” value (U87/EGFRV3 cells) was “temperature-dependency and glutamine-dependency”, the “cell uptake of Compound 3” value ([1]; siRNA knock-down of SLC1A5) was “inhibition of cell uptake” and the “Compound 3 fluorescence (uptake)” value ([1]; sodium free conditions) was “inhibition of Compound 3 fluorescence (uptake)”. The “competition with cellular glutamine (absorbance)” value (U87 cells) was “competes with the cellular glutamine” and the “cell growth / cell toxicity” value (cell growth) was “does not inhibit cell growth”.
With `N[C@@H](CC(=O)NC12CC3CC(CC(C3)C1)C2)C(=O)O` [Compound 8, N4-(adamantan-1-yl)asparagine] the “cell uptake of glutamine analog: dependence on temperature and on glutamine” value (U87/EGFRV3 cells) was “temperature-dependency and glutamine-dependency”.
For `O=C(CCCC[C@@H]1SC[C@@H]2NC(=O)N[C@@H]21)N[C@H]1C(O)O[C@H](CO)[C@@H](O)[C@@H]1O` (stereo partly drawn) [Gluc-Bio], the “uptake of Gluc-Bio” value (GBM39 single cells) was “inhibited by increasing the extracellular glucose concentration and by decreasing the temperature”, the “generation of NADH in the presence of Gluc-Bio” value (hexokinase; 0.5 mM glucose and 0.5 mM Gluc-Bio vs 0.5 mM glucose alone) was “much slower than that of glucose alone” and the “final amount of NADH generated” value (hexokinase; ATP much less than glucose, addition of Gluc-Bio) was “less NADH was generated”. The substrate for hexokinase (hexokinase; conclusion from both experiments) was “is a substrate for hexokinase”.
`C#Cc1cccc(Nc2ncnc3cc(OCCOC)c(OCCOC)cc23)c1` [erlotinib] was tested, and the “cell growth (number of cells as a function of days)” value (U87EGFRvIII cells [2]) was “not inhibited; also recorded: does not inhibit”, the “activities of HK2” value (GBM39 cells) was “sharply reduced” and the “level of GSH” value (GBM39 cells) was “sharply reduced”. For the same molecule, the “level of glucose uptake” value (GBM39 cells) was “sharply reduced”, the glutamine uptake (U87EGFRvIII cells [3]; 1 uM erlotinib) was “increased” and the glucose uptake (U87EGFRvIII cells [3]; 1 μM erlotinib) was “repressed”. For the same molecule, the “levels of PFK and PKM2” value (U87EGFRvIII cells [3]; 1 μM erlotinib) was “increased”, the glucose uptake (U87EGFRvIII cells [3]; higher dose erlotinib (10 μM)) was “decreased” and the glutamine uptake (U87EGFRvIII cells [3]; higher dose erlotinib (10 μM)) was “decreased”. The metabolic enzymes (U87EGFRvIII cells [3]; higher dose erlotinib (10 μM)) was “repressed” and the “cellular energy production (EPI)” value (U87EGFRvIII cells [3]; higher drug concentration (10 μM)) was “inhibits cellular energy production”.
